Data as given in PubChem BioAssay (NCI).
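Test compounds were applied to cells in 96-well plates for 48 hours at 5 doses. At the TGI there is no net growth.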

Key:
Assay in all cases: NCI tumour cell line growth inhibition, 48 h
UACC-62 melanoma = test system: UACC-62 melanoma
MCF7 breast = test system: MCF7 breast
MALME-3M melanoma = test system: MALME-3M melanoma
DU-145 prostate = test system: DU-145 prostate
HCT-15 colon = test system: HCT-15 colon
KM12 colon = test system: KM12 colon
SK-OV-3 ovarian = test system: SK-OV-3 ovarian
SF-268 CNS = test system: SF-268 CNS
UACC-257 melanoma = test system: UACC-257 melanoma
HS 578T breast = test system: HS 578T breast
LOX IMVI melanoma = test system: LOX IMVI melanoma
HCC-2998 colon = test system: HCC-2998 colon
UO-31 renal = test system: UO-31 renal
MOLT-4 leukemia = test system: MOLT-4 leukemia
HL-60(TB) leukemia = test system: HL-60(TB) leukemia
NCI-H226 lung = test system: NCI-H226 lung
ACHN renal = test system: ACHN renal
OVCAR-8 ovarian = test system: OVCAR-8 ovarian
HT29 colon = test system: HT29 colon
HOP-62 NSCLC = test system: HOP-62 NSCLC
COLO 205 colon = test system: COLO 205 colon
OVCAR-3 ovarian = test system: OVCAR-3 ovarian
NCI/ADR-RES ovarian = test system: NCI/ADR-RES ovarian
SW-620 colon = test system: SW-620 colon
RPMI-8226 leukemia = test system: RPMI-8226 leukemia
MDA-MB-231 breast = test system: MDA-MB-231 breast
HCT-116 colon = test system: HCT-116 colon
A549 NSCLC = test system: A549 NSCLC
U251 CNS = test system: U251 CNS
OVCAR-5 ovarian = test system: OVCAR-5 ovarian
TK-10 renal = test system: TK-10 renal
EKVX NSCLC = test system: EKVX NSCLC
SF-539 CNS = test system: SF-539 CNS
CCRF-CEM leukemia = test system: CCRF-CEM leukemia
PC-3 prostate = test system: PC-3 prostate
NCI-H23 lung = test system: NCI-H23 lung
SF-295 CNS = test system: SF-295 CNS
IGROV1 ovarian = test system: IGROV1 ovarian
SK-MEL-5 melanoma = test system: SK-MEL-5 melanoma
BT-549 breast = test system: BT-549 breast
SN12C renal = test system: SN12C renal
A498 renal = test system: A498 renal
RXF 393 renal = test system: RXF 393 renal
SNB-19 CNS = test system: SNB-19 CNS
SK-MEL-28 melanoma = test system: SK-MEL-28 melanoma
T-47D breast = test system: T-47D breast
NCI-H460 lung = test system: NCI-H460 lung
786-0 renal = test system: 786-0 renal
OVCAR-4 ovarian = test system: OVCAR-4 ovarian
K-562 leukemia = test system: K-562 leukemia
HOP-92 NSCLC = test system: HOP-92 NSCLC
M14 melanoma = test system: M14 melanoma
MDA-MB-435 = test system: MDA-MB-435
NCI-H522 lung = test system: NCI-H522 lung
CAKI-1 renal = test system: CAKI-1 renal
SK-MEL-2 melanoma = test system: SK-MEL-2 melanoma

**Q.** How did the TGI (UACC-62 melanoma) turn out when `O=C(CNc1cccc([N+](=O)[O-])c1)Nn1c(-c2ccccc2)nc2ccccc2c1=O` was run?
**A.** The TGI was 0.608 µM.

**Q.** And the TGI (MCF7 breast)?
**A.** Its TGI is 1.71 µM.

**Q.** What about the TGI (MALME-3M melanoma) of the same molecule?
**A.** The TGI was 2.41 µM.

**Q.** What about the TGI (DU-145 prostate) of the same molecule?
**A.** Its TGI is 5.47 µM.

**Q.** What about the TGI (HCT-15 colon) of the same molecule?
**A.** Its TGI is 2.23 µM.

**Q.** What about the TGI (KM12 colon) of the same molecule?
**A.** Its TGI is 4.42 µM.

**Q.** And the TGI (SK-OV-3 ovarian)?
**A.** Its TGI is 2.04 µM.

**Q.** And the TGI (SF-268 CNS)?
**A.** The TGI was 4.22 µM.

**Q.** And the TGI (UACC-257 melanoma)?
**A.** Its TGI is 11.8 µM.

**Q.** What about the TGI (HS 578T breast) of the same molecule?
**A.** Its TGI is 3.6 µM.

**Q.** And the TGI (LOX IMVI melanoma)?
**A.** Its TGI is 0.663 µM.

**Q.** What about the TGI (HCC-2998 colon) of the same molecule?
**A.** The TGI was 2.81 µM.

**Q.** And the TGI (UO-31 renal)?
**A.** The TGI was 4.12 µM.

**Q.** What about the TGI (MOLT-4 leukemia) of the same molecule?
**A.** Its TGI is 0.818 µM.

**Q.** What about the TGI (HL-60(TB) leukemia) of the same molecule?
**A.** Its TGI is 1.81 µM.

**Q.** And the TGI (NCI-H226 lung)?
**A.** Its TGI is 0.512 µM.

**Q.** What about the TGI (ACHN renal) of the same molecule?
**A.** The TGI was 3.34 µM.

**Q.** What about the TGI (OVCAR-8 ovarian) of the same molecule?
**A.** The TGI was 5.31 µM.

**Q.** What about the TGI (HT29 colon) of the same molecule?
**A.** The TGI was 1.08 µM.

**Q.** And the TGI (HOP-62 NSCLC)?
**A.** The TGI was 4.25 µM.

**Q.** And the TGI (COLO 205 colon)?
**A.** The TGI was 3.17 µM.

**Q.** What about the TGI (OVCAR-3 ovarian) of the same molecule?
**A.** Its TGI is 5.15 µM.

**Q.** What about the TGI (NCI/ADR-RES ovarian) of the same molecule?
**A.** Its TGI is 1.89 µM.

**Q.** And the TGI (SW-620 colon)?
**A.** The TGI was 2.05 µM.

**Q.** And the TGI (RPMI-8226 leukemia)?
**A.** Its TGI is 3.36 µM.

**Q.** What about the TGI (MDA-MB-231 breast) of the same molecule?
**A.** The TGI was 2.9 µM.

**Q.** What about the TGI (HCT-116 colon) of the same molecule?
**A.** Its TGI is 2.09 µM.

**Q.** What about the TGI (A549 NSCLC) of the same molecule?
**A.** Its TGI is 4.9 µM.

**Q.** What about the TGI (U251 CNS) of the same molecule?
**A.** Its TGI is 2.88 µM.

**Q.** What about the TGI (OVCAR-5 ovarian) of the same molecule?
**A.** The TGI was 3.46 µM.

**Q.** What about the TGI (TK-10 renal) of the same molecule?
**A.** Its TGI is 3.95 µM.

**Q.** And the TGI (EKVX NSCLC)?
**A.** The TGI was 6.86 µM.

**Q.** What about the TGI (SF-539 CNS) of the same molecule?
**A.** Its TGI is 4.7 µM.

**Q.** What about the TGI (CCRF-CEM leukemia) of the same molecule?
**A.** Its TGI is 1.15 µM.

**Q.** And the TGI (PC-3 prostate)?
**A.** Its TGI is 1.85 µM.

**Q.** And the TGI (NCI-H23 lung)?
**A.** Its TGI is 9.32 µM.

**Q.** What about the TGI (SF-295 CNS) of the same molecule?
**A.** Its TGI is 3.28 µM.

**Q.** What about the TGI (IGROV1 ovarian) of the same molecule?
**A.** The TGI was 0.482 µM.

**Q.** What about the TGI (SK-MEL-5 melanoma) of the same molecule?
**A.** Its TGI is 2.31 µM.

**Q.** What about the TGI (BT-549 breast) of the same molecule?
**A.** Its TGI is > 100 µM.

**Q.** What about the TGI (SN12C renal) of the same molecule?
**A.** Its TGI is 2.73 µM.

**Q.** What about the TGI (A498 renal) of the same molecule?
**A.** Its TGI is 0.274 µM.

**Q.** What about the TGI (RXF 393 renal) of the same molecule?
**A.** Its TGI is 1.08 µM.

**Q.** And the TGI (SNB-19 CNS)?
**A.** The TGI was 4.99 µM.

**Q.** And the TGI (SK-MEL-28 melanoma)?
**A.** Its TGI is 3.04 µM.

**Q.** And the TGI (T-47D breast)?
**A.** Its TGI is 4.54 µM.

**Q.** Which results are given for `CNC(=O)c1n[nH]nc1Sc1c([N+](=O)[O-])ncn1C`?
**A.** TGI (UACC-62 melanoma): > 100 µM; TGI (NCI-H460 lung): > 100 µM; TGI (MCF7 breast): > 100 µM; TGI (DU-145 prostate): > 100 µM; TGI (HCT-15 colon): > 100 µM; TGI (786-0 renal): > 100 µM; TGI (KM12 colon): > 100 µM; TGI (SK-OV-3 ovarian): > 100 µM; TGI (OVCAR-4 ovarian): > 100 µM; TGI (SF-268 CNS): > 100 µM; TGI (K-562 leukemia): > 100 µM; TGI (HOP-92 NSCLC): > 100 µM; TGI (UACC-257 melanoma): > 100 µM; TGI (HS 578T breast): > 100 µM; TGI (LOX IMVI melanoma): > 100 µM; TGI (HCC-2998 colon): > 100 µM; TGI (UO-31 renal): > 100 µM; TGI (MOLT-4 leukemia): > 100 µM; TGI (ACHN renal): > 100 µM; TGI (OVCAR-8 ovarian): > 100 µM; TGI (M14 melanoma): > 100 µM; TGI (HT29 colon): > 100 µM; TGI (HOP-62 NSCLC): > 100 µM; TGI (COLO 205 colon): > 100 µM; TGI (OVCAR-3 ovarian): > 100 µM; TGI (NCI/ADR-RES ovarian): > 100 µM; TGI (SW-620 colon): > 100 µM; TGI (MDA-MB-231 breast): > 100 µM; TGI (HCT-116 colon): > 100 µM; TGI (A549 NSCLC): > 100 µM; TGI (U251 CNS): > 100 µM; TGI (OVCAR-5 ovarian): > 100 µM; TGI (TK-10 renal): > 100 µM; TGI (MDA-MB-435): > 100 µM; TGI (NCI-H522 lung): > 100 µM; TGI (EKVX NSCLC): > 100 µM; TGI (SF-539 CNS): > 100 µM; TGI (CCRF-CEM leukemia): > 100 µM; TGI (PC-3 prostate): > 100 µM; TGI (NCI-H23 lung): > 100 µM; TGI (SF-295 CNS): > 100 µM; TGI (IGROV1 ovarian): > 100 µM; TGI (SK-MEL-5 melanoma): > 100 µM; TGI (CAKI-1 renal): > 100 µM; TGI (SK-MEL-2 melanoma): > 100 µM; TGI (BT-549 breast): > 100 µM; TGI (SN12C renal): > 100 µM; TGI (A498 renal): > 100 µM; TGI (RXF 393 renal): > 100 µM; TGI (SNB-19 CNS): > 100 µM; TGI (SK-MEL-28 melanoma): > 100 µM; TGI (T-47D breast): > 100 µM
